Assays:
Experiment in all cases: relative viability (nuclei count vs DMSO), 5 days (fraction); higher = more cells survive
NCI-H1792 = tested on: NCI-H1792
Procedure, shortened: (§1)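 Five library-drug doses in √10 steps were combined with a fixed anchor-drug dose, or a single drug was given alone, by pin tool to lung cancer cell lines in 1536-well plates the day after seeding. Nuclei were stained and counted after 5 days. Relative viability is the nuclei count in treated wells over that in vehicle wells, taken as the median of duplicate plates.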

NCI-H1993 = tested on: NCI-H1993
Procedure, shortened: as §1

HCC-15 = tested on: HCC-15
Procedure, shortened: as §1

NCI-H838 = tested on: NCI-H838
Procedure, shortened: as §1

NCI-H358 = tested on: NCI-H358
Procedure, shortened: as §1

COR-L23 = tested on: COR-L23
Procedure, shortened: as §1

NCI-H647 = tested on: NCI-H647
Procedure, shortened: as §1

NCI-H1395 = tested on: NCI-H1395
Procedure, shortened: as §1

NCI-H1734 = tested on: NCI-H1734
Procedure, shortened: as §1

NCI-H2009 = tested on: NCI-H2009
Procedure, shortened: as §1

NCI-H1755 = tested on: NCI-H1755
Procedure, shortened: as §1

NCI-H1793 = tested on: NCI-H1793
Procedure, shortened: as §1

UMC-11 = tested on: UMC-11
Procedure, shortened: as §1

HOP-62 = tested on: HOP-62
Procedure, shortened: as §1

NCI-H522 = tested on: NCI-H522
Procedure, shortened: as §1

NCI-H2170 = tested on: NCI-H2170
Procedure, shortened: as §1

COR-L 105 = tested on: COR-L 105
Procedure, shortened: as §1

NCI-H1355 = tested on: NCI-H1355
Procedure, shortened: as §1

SK-MES-1 = tested on: SK-MES-1
Procedure, shortened: as §1

NCI-H2228 = tested on: NCI-H2228
Procedure, shortened: as §1

NCI-H2347 = tested on: NCI-H2347
Procedure, shortened: as §1

HARA = tested on: HARA
Procedure, shortened: as §1

Work on `COc1cc2nccc(Oc3ccc(NC(=O)Nc4cc(C)on4)c(Cl)c3)c2cc1OC` [Tivozanib] + COc1cccc2cc(-c3nc([C@H]4CC[C@H](C(=O)O)CC4)n4ncnc(N)c34)[nH]c12 [OSI-027] (partner 0.5 µM) yielded a relative viability (NCI-H1792; first compound 0.005 µM) of 0.665, a relative viability (NCI-H1792; first compound 0.01581 µM) of 0.633 and a relative viability (NCI-H1792; first compound 0.05 µM) of 0.68. For the same compound, the relative viability (NCI-H1792; first compound 0.1581 µM) was 0.728, the relative viability (NCI-H1792; first compound 0.5 µM) was 0.746 and the relative viability (NCI-H1993; first compound 0.005 µM) was 0.503. It also gave a relative viability (NCI-H1993; first compound 0.01581 µM) of 0.534, a relative viability (NCI-H1993; first compound 0.05 µM) of 0.543 and a relative viability (NCI-H1993; first compound 0.1581 µM) of 0.518. For the same compound, the relative viability (NCI-H1993; first compound 0.5 µM) was 0.429, the relative viability (HCC-15; first compound 0.005 µM) was 0.547 and the relative viability (HCC-15; first compound 0.01581 µM) was 0.672. It also gave a relative viability (HCC-15; first compound 0.05 µM) of 0.711, a relative viability (HCC-15; first compound 0.1581 µM) of 0.571 and a relative viability (HCC-15; first compound 0.5 µM) of 0.61. It also gave a relative viability (NCI-H838; first compound 0.005 µM) of 0.364, a relative viability (NCI-H838; first compound 0.01581 µM) of 0.404 and a relative viability (NCI-H838; first compound 0.05 µM) of 0.357. It also gave a relative viability (NCI-H838; first compound 0.5 µM) of 0.38, a relative viability (NCI-H358; first compound 0.005 µM) of 0.751 and a relative viability (NCI-H358; first compound 0.01581 µM) of 0.776. The relative viability (NCI-H358; first compound 0.05 µM) was 0.674, the relative viability (NCI-H358; first compound 0.1581 µM) was 0.332 and the relative viability (NCI-H358; first compound 0.5 µM) was 0.727. For the same compound, the relative viability (COR-L23; first compound 0.005 µM) was 0.74, the relative viability (COR-L23; first compound 0.01581 µM) was 0.715 and the relative viability (COR-L23; first compound 0.05 µM) was 0.799. It also gave a relative viability (COR-L23; first compound 0.1581 µM) of 0.617, a relative viability (COR-L23; first compound 0.5 µM) of 0.647 and a relative viability (NCI-H647; first compound 0.005 µM) of 0.74. For the same compound, the relative viability (NCI-H647; first compound 0.01581 µM) was 0.618, the relative viability (NCI-H647; first compound 0.05 µM) was 0.728 and the relative viability (NCI-H647; first compound 0.1581 µM) was 0.526. It also gave a relative viability (NCI-H647; first compound 0.5 µM) of 0.658, a relative viability (NCI-H1395; first compound 0.005 µM) of 0.52 and a relative viability (NCI-H1395; first compound 0.01581 µM) of 0.635. For the same compound, the relative viability (NCI-H1395; first compound 0.05 µM) was 0.648, the relative viability (NCI-H1395; first compound 0.1581 µM) was 0.546 and the relative viability (NCI-H1395; first compound 0.5 µM) was 0.528. For the same compound, the relative viability (NCI-H1734; first compound 0.005 µM) was 0.567, the relative viability (NCI-H1734; first compound 0.01581 µM) was 0.621 and the relative viability (NCI-H1734; first compound 0.05 µM) was 0.592. It also gave a relative viability (NCI-H1734; first compound 0.1581 µM) of 0.429, a relative viability (NCI-H1734; first compound 0.5 µM) of 0.558 and a relative viability (NCI-H2009; first compound 0.005 µM) of 0.605. The relative viability (NCI-H2009; first compound 0.01581 µM) was 0.689, the relative viability (NCI-H2009; first compound 0.05 µM) was 0.65 and the relative viability (NCI-H2009; first compound 0.1581 µM) was 0.374. The relative viability (NCI-H2009; first compound 0.5 µM) was 0.386, the relative viability (NCI-H1755; first compound 0.005 µM) was 0.685 and the relative viability (NCI-H1755; first compound 0.01581 µM) was 0.77. For the same compound, the relative viability (NCI-H1755; first compound 0.05 µM) was 0.733, the relative viability (NCI-H1755; first compound 0.1581 µM) was 0.646 and the relative viability (NCI-H1755; first compound 0.5 µM) was 0.612. It also gave a relative viability (NCI-H1793; first compound 0.005 µM) of 0.225, a relative viability (NCI-H1793; first compound 0.01581 µM) of 0.219 and a relative viability (NCI-H1793; first compound 0.05 µM) of 0.344. For the same compound, the relative viability (NCI-H1793; first compound 0.1581 µM) was 0.249, the relative viability (NCI-H1793; first compound 0.5 µM) was 0.235 and the relative viability (UMC-11; first compound 0.005 µM) was 0.491. For the same compound, the relative viability (UMC-11; first compound 0.01581 µM) was 0.451, the relative viability (UMC-11; first compound 0.05 µM) was 0.536 and the relative viability (UMC-11; first compound 0.5 µM) was 0.426. It also gave a relative viability (HOP-62; first compound 0.005 µM) of 0.838, a relative viability (HOP-62; first compound 0.01581 µM) of 0.829 and a relative viability (HOP-62; first compound 0.05 µM) of 0.798. It also gave a relative viability (HOP-62; first compound 0.1581 µM) of 0.587, a relative viability (HOP-62; first compound 0.5 µM) of 0.817 and a relative viability (NCI-H522; first compound 0.005 µM) of 0.722. For the same compound, the relative viability (NCI-H522; first compound 0.01581 µM) was 0.788, the relative viability (NCI-H522; first compound 0.05 µM) was 0.783 and the relative viability (NCI-H522; first compound 0.1581 µM) was 0.677. It also gave a relative viability (NCI-H522; first compound 0.5 µM) of 0.604, a relative viability (NCI-H2170; first compound 0.005 µM) of 0.633 and a relative viability (NCI-H2170; first compound 0.01581 µM) of 0.78. The relative viability (NCI-H2170; first compound 0.05 µM) was 0.723, the relative viability (NCI-H2170; first compound 0.1581 µM) was 0.464 and the relative viability (NCI-H2170; first compound 0.5 µM) was 0.661. It also gave a relative viability (COR-L 105; first compound 0.005 µM) of 0.707, a relative viability (COR-L 105; first compound 0.01581 µM) of 0.748 and a relative viability (COR-L 105; first compound 0.05 µM) of 0.719. The relative viability (COR-L 105; first compound 0.1581 µM) was 0.525, the relative viability (COR-L 105; first compound 0.5 µM) was 0.762 and the relative viability (NCI-H1355; first compound 0.005 µM) was 0.419. The relative viability (NCI-H1355; first compound 0.01581 µM) was 0.48, the relative viability (NCI-H1355; first compound 0.05 µM) was 0.475 and the relative viability (NCI-H1355; first compound 0.1581 µM) was 0.273. It also gave a relative viability (NCI-H1355; first compound 0.5 µM) of 0.343, a relative viability (SK-MES-1; first compound 0.005 µM) of 0.515 and a relative viability (SK-MES-1; first compound 0.01581 µM) of 0.573. The relative viability (SK-MES-1; first compound 0.05 µM) was 0.7, the relative viability (SK-MES-1; first compound 0.1581 µM) was 0.515 and the relative viability (SK-MES-1; first compound 0.5 µM) was 0.583. The relative viability (NCI-H2228; first compound 0.005 µM) was 0.492, the relative viability (NCI-H2228; first compound 0.01581 µM) was 0.54 and the relative viability (NCI-H2228; first compound 0.05 µM) was 0.615. The relative viability (NCI-H2228; first compound 0.1581 µM) was 0.488, the relative viability (NCI-H2228; first compound 0.5 µM) was 0.485 and the relative viability (NCI-H2347; first compound 0.01581 µM) was 0.373. For the same compound, the relative viability (NCI-H2347; first compound 0.05 µM) was 0.262, the relative viability (NCI-H2347; first compound 0.5 µM) was 0.408 and the relative viability (HARA; first compound 0.005 µM) was 0.549. For the same compound, the relative viability (HARA; first compound 0.01581 µM) was 0.481, the relative viability (HARA; first compound 0.05 µM) was 0.65 and the relative viability (HARA; first compound 0.1581 µM) was 0.196. For the same compound, the relative viability (HARA; first compound 0.5 µM) was 0.28.

— the supplement of paper PMC10307832
